Measured values reported in EP3290438A1, “FOOD ALLERGEN EXTRACTS AND METHODS OF PRODUCING AND USING THE SAME” (CONSEJO SUPERIOR DE INVESTIGACIONES CIENTIFICAS, priority 2016, dated 2018).

B1: rGad m 1 wt, amyloid fibrils (formed in 5 mM EDTA) (other)
chain: AFAGILNDADITAALAACKAEGSFDHKAFFTKVGLAAKSSADIKKVFEIIDQDKSDFVEEDELKLFLQNFSAGARALSDAETKVFLKAGDSDGDGKIGVDEFGAMIKA
notes: Same chain as the wt monomer, in the amyloid state; also called wt-F; rGad m 1 amyloids; not shown: N-terminal histidine tag of the pET15b construct

Columns and labels:
[1] = system: IgE in sera from fish-allergic patients; assay: Peptide array (SPOT) immunoassay, IgE binding; set-up: species or system human; conditions: sera from ten fish-allergic patients (groups S-I, S-II), 1/10 dilution; 10 nmol/spot
Excerpt: It was first characterized the sequence elements to address how amyloid formation contributes to the IgE reactivity of Gad m 1. A set of 12-mer overlapping synthetic peptides with an offset of 2 that correspond to the sequence of Gad m 1 was used in an array-based immunoassay (Fig. 6).
This peptide length and surface density (10 nmol/spot) ensures the preservation of amyloid formation (which is conventionally limited to 6 residues), and differs from previous microarrays assays using a 15-mer with an offset of 3 (Perez-Gordo, M. et al. Mol Nutr Food Res 57, 1283-1290, (2013)).
The peptide membranes were assayed using the sera from ten patients who are allergic to fish (Figs. 1, 2). The IgE binding intensity was variable among the tested sera; however, it was possible to identify four major binding regions (I-IV) and two major groups of sera (S-I: S2, S3, S4, S7 and S8; S-II: S1, S5, S6, S12 and S13). […] Of these four regions, region I overlaps the sequence predicted as the cross-β sheet forming (adhesive) segment in helix A, whereas regions III and IV overlap the immunologically reactive sites located on the junctions between the AB and CD domains (residues 33-44) and between the CD and EF domains (residues 65-74) (Martinez, J. et al. Swiss Med Wkly 145, (2015)). Nevertheless, the reactivity of the Ca^2+-binding loop of the EF domain (residues 88-96) and of the C-terminal (residues 95-109) regions was not detected by these sera, as probed by both IgE and IgG4 binding (Fig. 1d) (Perez-Gordo, M. et al. Int Arch Allergy Imm 157, 31-40, (2012)). It merits comment that IgG4 reactivity, which is considered as a protective response in allergy, is largely detected in region IV for both sera groups (Perez-Gordo, M. et al. Int Arch Allergy Imm 157, 31-40, (2012)).
Peptide arrays (SPOT). Dodecapeptides spanning the whole sequence of Gad m 1, with an overlap of ten residues, were solid-phase synthesized and immobilized (≈10 nmol per spot) on an Amino-PEG500-UC540 sheet at the National Centre for Biotechnology (CNB-CSIC, Madrid). Before use, the membranes were rinsed with ethanol, washed three times with TBS (25 mM Tris-HCl, pH 7.5, containing 137 mM NaCl and 2.7 mM KCI), and incubated in TBS containing 1% BSA (w/v) and 2 mM EDTA for 1 h. The membranes were then probed for 2 h with sera from patients who are allergic to fish (1/10 dilution) and the anti-amyloid fibril OC antibody (AB2286 Merck Millipore, 1/2000 dilution), prepared in TBST (TBS containing 0.05% Tween-20) supplemented with 0.5% BSA (w/v) or with rGad m 1 chains (2.5 µM) in TBS. After extensive washes with TBST, a 30 min incubation with either horseradish peroxidase-labeled anti-human IgE (Abcam ab99806, 1/2000 dilution), anti-human IgG4 (Abcam ab99823, 1/4000 dilution), goat anti-rabbit IgG (Sigma, 1/5000 dilution) or anti-6X His tag® antibody (Abcam ab18184, dilution 1/1000) was performed. The signal was developed with the ECL-Western-blotting reagent (Bio-Rad) and detected with a ChemiDoc XRS instrument (Martinez, J. et al. Swiss Med Wkly 145, (2015)). When required, the membranes were regenerated by sequential incubation with TBS containing 8M urea, 1% SDS and 0.5% β-mercaptoethanol for 30 min at 55 °C and three times with acetic acid/ethanol/Milli-Q water (10:50:40). Regions were considered major allergenic epitopes when at least two overlapping peptides were involved. […]

[2] = Peptide array membranes probed with thioflavin T (ThT); assay type: physicochemical
Method: The presence of amyloid folds was then assayed using the conformation-selective OC antibody, which detects oligomer and fibril assemblies produced during the protein fibrillization process and the amyloid probe thioflavin T (ThT) (Kayed, R. et al. Molecular neurodegeneration 2, 18, (2007)). […] Of these regions, peptides 2 and 41 overlap the adhesive segments in helix A and E, predicted by the ZipperDB algorithm (Goldschmidt, L., et al. Proceedings of the National Academy of Sciences of the United States of America 107, 3487-3492, (2010)), peptides 12-16 and 34 lie over the IgE-binding regions III and IV, peptide 24 contains part of the Ca^2+-binding site of domain CD, and peptide 49 corresponds to a previously described epitope groups (Perez-Gordo, M. et al. Mol Nutr Food Res 57, 1283-1290, (2013)) (Fig. 2 and Fig. 7). […] It must be noted that peptides containing the helix C sequence, which was predicted to be an adhesive segment, were not detected by either the OC or ThT binding assays.

[3] = target: T1, Gad m 1 peptide 12 (12-mer overlapping synthetic peptide) (Atlantic cod); assay: SPOT peptide array incubated with rGad m 1 chains (2.5 µM), anti-6XHis detection
T1 construct: Immobilized on the SPOT membrane, about 10 nmol per spot
T1 peptide: GSFDHKAFFTKV

[4] = target: T2, Gad m 1 peptide 13 (12-mer overlapping synthetic peptide) (Atlantic cod); assay: as above
T2 construct: Immobilized on the SPOT membrane, about 10 nmol per spot
T2 peptide: FDHKAFFTKVGL

[5] = target: T3, Gad m 1 peptide 15 (12-mer overlapping synthetic peptide) (Atlantic cod); assay: as above
T3 construct: Immobilized on the SPOT membrane, about 10 nmol per spot
T3 peptide: AFFTKVGLAAKS

[6] = target: T4, Gad m 1 peptide 14 (12-mer overlapping synthetic peptide) (Atlantic cod); assay: as above
T4 construct: Immobilized on the SPOT membrane, about 10 nmol per spot
T4 peptide: HKAFFTKVGLAA

Row | Molecule | IgE binding [1] | other results
1 | 1: 12-mer overlapping synthetic peptide of the Gad m 1 sequence, SEQ ID NO: 1 (MAFAGILNDADI) [compound 1] | only recognized by the sera group S-II | 
2 | 6: 12-mer overlapping synthetic peptide of the Gad m 1 sequence, SEQ ID NO: 6 (DITAALAACKAE) [compound 6] | only recognized by the sera group S-II | 
3 | 7: 12-mer overlapping synthetic peptide of the Gad m 1 sequence, SEQ ID NO: 7 (TAALAACKAEGS) [compound 7] | only recognized by the sera group S-II | 
4 | 12: 12-mer overlapping synthetic peptide of the Gad m 1 sequence, SEQ ID NO: 12 (GSFDHKAFFTKV) [compound 12] |  | ThT fluorescence emission [2]: increased fluorescence emission
5 | 18: 12-mer overlapping synthetic peptide of the Gad m 1 sequence, SEQ ID NO: 18 (GLAAKSSADIKK) [compound 18] | variable recognition by the distinct sera | 
6 | 19: 12-mer overlapping synthetic peptide of the Gad m 1 sequence, SEQ ID NO: 19 (AAKSSADIKKVF) [compound 19] | variable recognition by the distinct sera | 
7 | B1 |  | binding result [3]: binds; binding result [4]: binds; binding result [5]: binds; binding result [6]: binds
